From ChEMBL document CHEMBL3856217, “A series of pyrido[2,3-b]pyrazin-3(4H)-one derivatives as aldose reductase inhibitors with antioxidant activity” (Eur J Med Chem, 2016)

Columns and labels:
[1] = Inhibition of rat lens ALR2 using D,L-glyceraldehyde as substrate preincubated for 10 mins followed by substrate addition measured for 5 mins
[2] = Antioxidant activity assessed as DPPH free radical scavenging activity at 100 uM after 30 mins by UV-spectrophotometric method relative to control; format: functional
[3] = Antioxidant activity assessed as DPPH free radical scavenging activity at 50 uM after 30 mins by UV-spectrophotometric method relative to control; format: functional
[4] = Antioxidant activity assessed as DPPH free radical scavenging activity at 10 uM after 30 mins by UV-spectrophotometric method relative to control; format: functional

Row | IC50 [1] [nM] | Compound | Activity [2] [%] | Activity [3] [%] | Activity [4] [%]
1 | 831 | O=C(O)Cn1c(=O)c(-c2ccc(O)c(O)c2)nc2cccnc21 | 50.5 |  | 
2 | 5210 | COc1cc(O)cc(-c2nc3cccnc3n(CC(=O)O)c2=O)c1 |  |  | 
3 | 319 | COc1c(O)cc(-c2nc3cccnc3n(CC(=O)O)c2=O)cc1O | 45.6 |  | 
4 | 1030 | O=C(O)Cn1c(=O)c(-c2ccc(O)cc2)nc2cccnc21 | 6.5 |  | 
5 | 185 | O=C(O)Cn1c(=O)c(-c2ccc(O)cc2O)nc2cccnc21 | 37.7 |  | 
6 | 2210 | COc1ccc(-c2nc3cccnc3n(CC(=O)O)c2=O)cc1O | 32.1 |  | 
7 | 296 | O=C(O)Cn1c(=O)c(-c2cc(O)cc(O)c2)nc2cccnc21 | 30.3 |  | 
8 | 689 | COc1cc(CCc2nc3cccnc3n(CC(=O)O)c2=O)ccc1O | 40.1 | 25.8 | 
9 | 68 | O=C(O)Cn1c(=O)c(-c2c(O)cc(O)cc2O)nc2cccnc21 | 83.5 | 70.9 | 40.2
10 | 179 | O=C(O)Cn1c(=O)c(-c2cc(O)c(O)c(O)c2)nc2cccnc21 | 70.7 | 62.4 | 34.6
11 | 578 | COc1cc(-c2nc3cccnc3n(CC(=O)O)c2=O)cc(O)c1OC | 20.5 |  | 

Further lines, the compound ahead of its results:

Row | Compound | IC50 [1] [nM] | Activity [2] [%] | Activity [3] [%] | Activity [4] [%]
12 | O=C(O)Cn1c(=O)c(/C=C/c2ccc(O)cc2)nc2cc(Cl)cnc21 | 13 | 66.2 | 47.5 | 
13 | O=C(O)Cn1c(=O)c(-c2ccccc2)nc2cccnc21 | 9940 |  |  | 
14 | COc1cc(/C=C/c2nc3cccnc3n(CC(=O)O)c2=O)ccc1O | 307 | 85.5 | 75.6 | 48.6
15 | O=C(O)Cn1c(=O)c(/C=C/c2ccc(O)cc2)nc2cccnc21 | 35 | 57.6 | 44.5 | 
16 | O=C(O)Cn1c(=O)c(-c2c(O)cc(O)cc2O)nc2cc(Cl)cnc21 | 18 | 85.2 | 69.8 | 41.3
17 | O=C(O)Cn1c(=O)c(/C=C/c2ccc(F)cc2)nc2cccnc21 | 126 | 42.7 |  | 
18 | O=C(O)Cn1c(=O)c(/C=C/c2ccc(O)c(O)c2)nc2cccnc21 | 165 | 89.1 | 78.4 | 55.1
19 | O=C(O)Cn1c(=O)c(/C=C/c2ccccc2)nc2cccnc21 | 895 | 78.9 | 64.1 | 35.5
20 | COc1cc(/C=C/c2nc3cc(Cl)cnc3n(CC(=O)O)c2=O)ccc1O | 87 | 94.9 | 81.8 | 62.3
21 | O=C(O)Cn1c(=O)c(CCc2ccc(O)cc2)nc2cccnc21 | 918 | 35.2 |  | 
22 | O=C(O)Cn1c(=O)c(-c2ccc(O)cc2O)nc2cc(Cl)cnc21 | 9 | 41.5 |  | 
23 | O=C(O)Cn1c(=O)c(/C=C/c2ccc(O)c(O)c2)nc2cc(Br)cnc21 | 108 | 95.8 | 82.4 | 70.8
24 | O=C(O)Cn1c(=O)c(/C=C/c2ccc(O)c(O)c2)nc2cc(Cl)cnc21 | 36 | 97.1 | 87.4 | 74.7
25 | COc1ccc(/C=C/c2nc3cccnc3n(CC(=O)O)c2=O)cc1 | 1520 | 52.8 | 39.1 | 
26 | COc1cc(/C=C/c2nc3cc(Br)cnc3n(CC(=O)O)c2=O)ccc1O | 389 | 90.1 | 75.4 | 59.6
27 | O=C(O)Cn1c(=O)c(-c2ccc(O)cc2O)nc2cc(Br)cnc21 | 24 | 43.5 |  | 
28 | O=C(O)Cn1c(=O)c(/C=C/c2ccc(O)cc2)nc2cc(Br)cnc21 | 29 | 61.2 | 43.8 | 
29 | Cc1c(C)c2c(c(C)c1O)CCC(C)(C(=O)O)O2 (configuration not stated) |  | 96.2 | 89.6 | 78.2
